The record followed here is patent publication US10308637B2 (LifeSci Pharmaceuticals, Inc., priority 2015, dated 2019).

Assay [1] is described as follows: Contact Assay (percentage inhibition from fluorescence intensity). Type of assay: biochemical. Here is the method: The percentage inhibition was calculated using the following equation:
[formula] where, Mean(BG) is the average value of the fluorescence intensity of the background wells and Mean(PC) is the average value of the fluorescence intensity of the positive control wells.
Table 4 provides the EC50 values of various compounds disclosed herein.

The next assay concerns the target human plasma kallikrein (Homo sapiens (Human), UniProt P03952). As to the kind of experiment: In vitro enzyme inhibition of human plasma kallikrein (Pro-Phe-Arg-AMC cleavage). Type of assay: biochemical. Particulars: Pro-Phe-Arg-AMC substrate, 37° C., read-out: hPK IC50. The method, then: The ability of the compounds disclosed herein to inhibit human plasma kallikrein activity was quantified according to the procedures below.
A 10 mM solution of the test compound was made in DMSO. […] A control tube containing only DMSO is included. 16 μL of each compound test solution was combined with 384 μL of assay buffer (50 mM Tris-HCl pH 7.5, 150 mM NaCl, 0.01% Triton X-100) to yield a “4× test compound buffer stock”.
These solutions are hereby referred to as 4×hPK and 2×PFR-AMC, respectively.
50 μL was removed from this mixture and placed into duplicate wells on a Microfluor 1Black U-bottom microtiter plate (Thermo Scientific). This plate was incubated for 5 minutes at 37° C. To each well, 50 µL of pre-warmed 2×PFR-AMC was added to start the enzymatic reaction. Cleavage of PFR-AMC was monitored in a Biotek Synergy H4 reader set at 37° C. Readings are taken every 43 seconds for 1 hour. […] The IC50 is calculated using the Gen5 (Biotek Instruments).
The ability of the compounds in Table 3 to inhibit human plasma kallikrein activity was determined.

In general, EC50 refers to the concentration giving half of the maximal effect. The low end stands for an effect from little substance, the high end for a need for much substance. A word on the IC50: it is the midpoint of a concentration-inhibition curve.

Where only a bound is given, the exact number is not on record here.

Chain of human plasma kallikrein (P03952 391-638 limits assumed): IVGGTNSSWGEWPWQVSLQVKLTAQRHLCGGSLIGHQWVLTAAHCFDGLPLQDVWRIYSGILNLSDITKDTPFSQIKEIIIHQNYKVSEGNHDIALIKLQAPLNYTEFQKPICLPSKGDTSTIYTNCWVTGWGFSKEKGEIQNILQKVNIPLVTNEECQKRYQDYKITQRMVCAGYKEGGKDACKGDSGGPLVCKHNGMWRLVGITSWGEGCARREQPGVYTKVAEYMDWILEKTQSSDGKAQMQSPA
Chain of human plasma kallikrein (P03952 20-390 partner limits assumed): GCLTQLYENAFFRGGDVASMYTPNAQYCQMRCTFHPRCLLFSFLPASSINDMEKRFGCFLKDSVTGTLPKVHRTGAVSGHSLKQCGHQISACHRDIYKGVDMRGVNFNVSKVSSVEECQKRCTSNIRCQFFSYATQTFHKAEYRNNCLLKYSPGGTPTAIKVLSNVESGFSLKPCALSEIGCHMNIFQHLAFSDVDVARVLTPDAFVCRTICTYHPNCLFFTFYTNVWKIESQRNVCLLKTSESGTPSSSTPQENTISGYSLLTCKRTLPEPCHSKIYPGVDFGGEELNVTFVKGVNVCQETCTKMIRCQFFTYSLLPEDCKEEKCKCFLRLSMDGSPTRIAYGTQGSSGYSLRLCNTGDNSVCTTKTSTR

Regarding `Cc1cc(N)nc(C)c1CNC(=O)c1cc(Cc2ccc3ncc(Cl)cc3c2)nc(C(=O)O)c1` [Example 209, 4-((6-amino-2,4-dimethylpyridin-3-yl)methylcarbamoyl)-6-((3-chloroquinolin-6-yl)methyl)picolinic Acid], the EC50 in assay [1] fell in the range of 100 to 1000 nM. Further, the concentration for half-maximal inhibition (IC50) on human plasma kallikrein is below 100 nM. For the compound `Cc1cnc2c(S(N)(=O)=O)cc(Cc3cc(C(=O)NCc4cnc5[nH]cc(Cl)c5c4)ccn3)cc2c1` [Example 291, N-((3-chloro-1H-pyrrolo[2,3-b]pyridin-5-yl)methyl)-2-((3-methyl-8-sulfamoylquinolin-6-yl)methyl)isonicotinamide], the EC50 in assay [1] is at most 100 nM. On to “N-(3-chloro-6-fluoro-1H-indol-5-ylmethyl)-2-(2-cyano-quinolin-6-ylmethyl)-isonicotinamide [Example 130]”, for which the 50% inhibitory concentration (IC50) on human plasma kallikrein is below 100 nM.
